Experimental data taken from ChEMBL document CHEMBL5370643, “Discovery of MK-1468: A Potent, Kinome-Selective, Brain-Penetrant Amidoisoquinoline LRRK2 Inhibitor for the Potential Treatment of Parkinson's Disease” (J Med Chem, 2023).
Values after ≈ are worked out from the molar mass of the structure shown.

Assays:
[1] = Protein binding in human plasma incubated for 4 hrs by equilibrium dialysis method; assay type: ADME, cell-free; settings: read-out: PPB (converted)
[2] = Toxicity in Wistar-Han rat assessed as effect on spontaneous locomotor activity at 60 mg/kg, po administered as single dose and measured upto 24 hrs by telemetric analysis; assay type: organism-based; settings: in vivo
[3] = Toxicity in Wistar-Han rat assessed as squamous hyperplasia of nonglandular stomach at 750 mg/kg, po administered once daily for 7 days; assay type: organism-based; settings: in vivo, 168 h, time 7 day
[4] = Genotoxicity in CHO-WBL cells incubated for 3 to 24 hrs in presence or absence of rat liver S9 fraction by micronucleus assay; assay type: toxicity, Cricetulus griseus; settings: chinese hamster, time 3-24 hrs
[5] = target: Leucine-rich repeat serine/threonine-protein kinase 2 (Homo sapiens, UniProt Q5S007, G2019S); assay: Inhibition of recombinant N-terminal GST-fused LRRK2 […] mutant (970 to 2527 residues) (unknown origin) using LRRKtide peptide as substrate assessed as inhibition of substrate phosphorylation preincubated with compound for 15 mins followed by substrate addition and measured after 90 mins in presence of ATP by TR-FRET assay
Chain of Leucine-rich repeat serine/threonine-protein kinase 2 (Q5S007 whole entry G2019S, the tested form may be a part): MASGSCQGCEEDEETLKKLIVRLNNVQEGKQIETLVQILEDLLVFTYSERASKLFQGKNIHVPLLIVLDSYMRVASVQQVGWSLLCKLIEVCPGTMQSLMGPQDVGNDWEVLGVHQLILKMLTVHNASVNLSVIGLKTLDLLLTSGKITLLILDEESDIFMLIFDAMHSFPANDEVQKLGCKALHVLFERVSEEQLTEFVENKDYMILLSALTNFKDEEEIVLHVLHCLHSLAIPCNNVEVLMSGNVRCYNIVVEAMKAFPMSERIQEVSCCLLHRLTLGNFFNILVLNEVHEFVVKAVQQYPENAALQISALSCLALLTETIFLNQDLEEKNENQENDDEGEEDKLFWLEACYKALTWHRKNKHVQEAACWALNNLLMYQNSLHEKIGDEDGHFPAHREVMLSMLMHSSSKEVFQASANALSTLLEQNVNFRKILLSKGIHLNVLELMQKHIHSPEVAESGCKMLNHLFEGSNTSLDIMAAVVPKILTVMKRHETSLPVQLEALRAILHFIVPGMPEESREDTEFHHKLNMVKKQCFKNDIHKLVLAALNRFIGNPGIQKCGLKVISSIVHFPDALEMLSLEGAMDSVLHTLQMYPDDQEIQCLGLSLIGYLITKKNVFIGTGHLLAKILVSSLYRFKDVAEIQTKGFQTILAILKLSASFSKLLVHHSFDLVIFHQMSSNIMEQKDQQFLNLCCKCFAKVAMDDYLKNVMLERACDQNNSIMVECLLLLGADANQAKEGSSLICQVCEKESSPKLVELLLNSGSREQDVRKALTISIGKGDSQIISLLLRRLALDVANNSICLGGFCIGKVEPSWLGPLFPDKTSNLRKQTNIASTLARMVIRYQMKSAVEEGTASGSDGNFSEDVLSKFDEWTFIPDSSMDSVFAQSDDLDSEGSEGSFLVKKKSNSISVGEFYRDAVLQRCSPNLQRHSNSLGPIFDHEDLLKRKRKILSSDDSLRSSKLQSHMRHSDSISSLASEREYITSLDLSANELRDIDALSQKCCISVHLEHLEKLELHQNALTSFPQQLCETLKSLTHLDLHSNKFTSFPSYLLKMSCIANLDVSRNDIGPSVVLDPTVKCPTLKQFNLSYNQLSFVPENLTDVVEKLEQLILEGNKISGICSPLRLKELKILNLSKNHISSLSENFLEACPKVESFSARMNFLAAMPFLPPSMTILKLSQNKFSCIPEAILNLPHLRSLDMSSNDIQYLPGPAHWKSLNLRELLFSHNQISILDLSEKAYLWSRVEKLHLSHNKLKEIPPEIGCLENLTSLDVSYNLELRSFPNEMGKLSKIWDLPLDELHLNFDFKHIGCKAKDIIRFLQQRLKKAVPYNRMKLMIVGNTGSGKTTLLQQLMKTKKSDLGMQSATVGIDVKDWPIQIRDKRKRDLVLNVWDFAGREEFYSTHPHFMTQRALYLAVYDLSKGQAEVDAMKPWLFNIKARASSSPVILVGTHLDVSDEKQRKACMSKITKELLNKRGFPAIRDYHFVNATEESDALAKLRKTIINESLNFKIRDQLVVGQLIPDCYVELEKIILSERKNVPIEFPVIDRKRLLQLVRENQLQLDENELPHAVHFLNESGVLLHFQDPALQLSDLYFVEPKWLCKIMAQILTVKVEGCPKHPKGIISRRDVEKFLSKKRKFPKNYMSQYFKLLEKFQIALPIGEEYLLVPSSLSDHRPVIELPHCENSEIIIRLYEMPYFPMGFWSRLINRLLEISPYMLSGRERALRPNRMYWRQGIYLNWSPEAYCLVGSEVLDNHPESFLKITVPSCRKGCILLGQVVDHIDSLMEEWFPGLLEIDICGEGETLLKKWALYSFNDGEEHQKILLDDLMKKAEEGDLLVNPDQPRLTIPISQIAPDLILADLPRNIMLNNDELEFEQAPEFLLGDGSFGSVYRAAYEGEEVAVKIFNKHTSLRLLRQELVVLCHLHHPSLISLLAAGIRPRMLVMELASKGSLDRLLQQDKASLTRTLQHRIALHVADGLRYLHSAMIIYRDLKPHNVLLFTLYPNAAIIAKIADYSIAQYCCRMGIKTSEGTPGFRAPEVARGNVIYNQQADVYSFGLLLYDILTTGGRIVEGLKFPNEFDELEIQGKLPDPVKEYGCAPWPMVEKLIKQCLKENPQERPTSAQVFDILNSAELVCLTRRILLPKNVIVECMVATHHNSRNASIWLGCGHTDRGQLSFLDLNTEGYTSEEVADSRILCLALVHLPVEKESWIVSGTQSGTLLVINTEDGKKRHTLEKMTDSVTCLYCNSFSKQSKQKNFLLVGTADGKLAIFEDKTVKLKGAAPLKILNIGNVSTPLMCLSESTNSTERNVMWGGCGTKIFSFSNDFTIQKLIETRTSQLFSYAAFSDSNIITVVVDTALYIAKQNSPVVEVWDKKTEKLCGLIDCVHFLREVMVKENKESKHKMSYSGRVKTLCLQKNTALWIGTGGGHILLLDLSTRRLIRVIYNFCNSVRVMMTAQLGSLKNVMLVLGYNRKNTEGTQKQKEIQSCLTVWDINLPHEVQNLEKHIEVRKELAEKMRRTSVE

[6] = Toxicity in Wistar-Han rat assessed as effect on arterial pulse pressure at 60 mg/kg, po administered as single dose and measured upto 24 hrs by telemetric analysis; assay type: organism-based; settings: in vivo
[7] = Intrinsic clearance in Beagle dog at 0.5 mg/kg, iv measured after 24 hrs by LC-MS/MS analysis; assay type: ADME, organism-based, Canis lupus familiaris; settings: in vivo
[8] = Intrinsic clearance in Wistar-Han rat at 3 mg/kg, iv measured after 24 hrs by LC-MS/MS analysis; assay type: ADME, organism-based; settings: in vivo
[9] = Toxicity in Wistar-Han rat assessed as histopathological change at 750 mg/kg, po administered once daily for 7 days; assay type: organism-based; settings: in vivo, 168 h, time 7 day
[10] = Mutagenicity in Salmonella typhimurium TA98 at 30 to 5000 ug/plate incubated for 48 hrs in presence of Wistar-Han rat S9 fraction by Ames test; assay type: toxicity, subcellular; settings: salmonella enterica subsp. enterica serovar typhimurium, s9, 48 h
[11] = Total clearance in Wistar-Han rat at 3 mg/kg, iv measured after 24 hrs by LC-MS/MS analysis; assay type: ADME, organism-based; settings: in vivo
[12] = AUC (0 to 24 hrs) in Wistar-Han rat at 48 mg administered twice a day by LC-MS/MS analysis; assay type: ADME; design: dose 48 mg; settings: in vivo
[13] = Cardiotoxicity in guinea pig assessed as effect on PR interval at 5 to 20 mg/kg, iv administered continuously for 20 min by ECG analysis; assay type: toxicity, organism-based, Cavia porcellus; settings: in vivo, dose 5-20 mg/kg
rat Mdrl1 P-gp = assay: Efflux ratio of apparent permeability across basolateral to apical over apical to basolateral side in MDCK cells transfected with rat Mdrl1 P-gp incubated for 3 hrs by LC-MS/MS analysis; settings: dog, MDCK-MDR1
[14] = Toxicity in Wistar-Han rat assessed as effect on spontaneous locomotor activity at 225 mg/kg, po administered as single dose and measured upto 24 hrs by telemetric analysis; assay type: organism-based; settings: in vivo
[15] = MRT in rhesus monkey at 3 mg/kg, iv measured after 24 hrs by LC-MS/MS analysis; assay type: ADME, organism-based, Macaca mulatta; settings: in vivo
[16] = Mutagenicity in Salmonella typhimurium TA98 at 30 to 5000 ug/plate incubated for 48 hrs in absence of Wistar-Han rat S9 fraction by Ames test; assay type: toxicity; settings: salmonella enterica subsp. enterica serovar typhimurium, s9, 48 h
[17] = AUCtau in Wistar-Han rat at 48 mg administered twice a day by LC-MS/MS analysis; assay type: ADME; design: dose 48 mg; settings: in vivo
[18] = Mutagenicity in Salmonella typhimurium TA1535 at 30 to 5000 ug/plate incubated for 48 hrs in absence of Wistar-Han rat S9 fraction by Ames test; assay type: toxicity; settings: salmonella enterica subsp. enterica serovar typhimurium, s9, 48 h
[19] = Intrinsic clearance in rhesus monkey at 3 mg/kg, iv measured after 24 hrs by LC-MS/MS analysis; assay type: ADME, organism-based, Macaca mulatta; settings: in vivo
hERG (KCNH2) = hERG (KCNH2) (Homo sapiens, UniProt Q12809); assay: Inhibition of hERG expressed in CHO cells at 30 uM by QPatch voltage clamp assay relative to control; assay type: toxicity, cell-based; settings: CHO cells expressing hERG
Chain of hERG (KCNH2) (Q12809 whole entry): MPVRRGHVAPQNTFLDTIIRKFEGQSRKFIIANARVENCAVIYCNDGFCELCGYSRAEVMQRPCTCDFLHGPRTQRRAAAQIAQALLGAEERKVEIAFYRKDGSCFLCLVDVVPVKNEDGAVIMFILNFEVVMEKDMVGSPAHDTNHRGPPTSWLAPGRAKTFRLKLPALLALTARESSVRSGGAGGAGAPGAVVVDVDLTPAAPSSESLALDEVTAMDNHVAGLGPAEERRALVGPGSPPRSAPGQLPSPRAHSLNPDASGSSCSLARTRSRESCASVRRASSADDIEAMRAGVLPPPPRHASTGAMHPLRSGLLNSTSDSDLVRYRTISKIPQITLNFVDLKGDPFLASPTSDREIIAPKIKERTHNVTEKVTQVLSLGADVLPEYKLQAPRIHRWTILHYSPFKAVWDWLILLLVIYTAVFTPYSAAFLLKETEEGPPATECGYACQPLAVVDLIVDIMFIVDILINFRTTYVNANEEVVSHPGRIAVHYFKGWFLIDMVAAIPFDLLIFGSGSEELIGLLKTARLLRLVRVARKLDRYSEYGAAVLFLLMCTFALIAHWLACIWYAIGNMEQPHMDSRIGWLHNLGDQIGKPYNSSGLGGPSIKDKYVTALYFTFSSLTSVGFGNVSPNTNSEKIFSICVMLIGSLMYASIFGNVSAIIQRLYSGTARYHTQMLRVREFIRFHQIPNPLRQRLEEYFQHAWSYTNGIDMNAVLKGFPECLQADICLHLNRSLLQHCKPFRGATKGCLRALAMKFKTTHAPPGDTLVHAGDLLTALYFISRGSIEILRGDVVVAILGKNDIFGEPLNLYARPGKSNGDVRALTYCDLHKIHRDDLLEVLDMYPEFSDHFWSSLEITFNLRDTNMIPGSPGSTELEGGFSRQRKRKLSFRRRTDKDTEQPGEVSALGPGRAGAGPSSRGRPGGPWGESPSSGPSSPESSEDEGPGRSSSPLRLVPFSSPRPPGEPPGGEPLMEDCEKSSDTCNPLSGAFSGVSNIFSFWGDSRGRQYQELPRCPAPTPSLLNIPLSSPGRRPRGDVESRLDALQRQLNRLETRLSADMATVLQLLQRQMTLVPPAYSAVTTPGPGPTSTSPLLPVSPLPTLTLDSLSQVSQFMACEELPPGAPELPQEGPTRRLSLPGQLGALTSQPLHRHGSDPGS

[20] = Mutagenicity in Salmonella typhimurium TA100 at 30 to 5000 ug/plate incubated for 48 hrs in presence of Wistar-Han rat S9 fraction by Ames test; assay type: toxicity, subcellular; settings: salmonella enterica subsp. enterica serovar typhimurium, s9, 48 h
Rattus norvegicus = assay: In vivo inhibition of LRRK2 in po dosed Wistar-Han rat assessed as reduction in Ser935 phosphorylation in stratium measured after 2 hrs; assay type: functional, organism-based; settings: dose 1-100 mg/kg
[21] = Cardiotoxicity in iv dose guinea pig assessed as increase in QTc interval at high dose administered continuously for 20 min by ECG analysis; assay type: toxicity, organism-based, Cavia porcellus; settings: in vivo
[22] = Cardiotoxicity in guinea pig assessed as effect on QRS interval at 5 to 20 mg/kg, iv administered continuously for 20 min by ECG analysis; assay type: toxicity, organism-based, Cavia porcellus; settings: in vivo, dose 5-20 mg/kg
[23] = Mutagenicity in Salmonella typhimurium TA100 at 30 to 5000 ug/plate incubated for 48 hrs in absence of Wistar-Han rat S9 fraction by Ames test; assay type: toxicity; settings: salmonella enterica subsp. enterica serovar typhimurium, s9, 48 h
[24] = Kinetic solubility of compound in PBS at pH 7 measured after 24 hrs by UPLC/DAD analysis; assay type: physicochemical; settings: read-out: Kinetic_solubility
[25] = Unbound brain-to-plasma concentration ratio in iv dosed Wistar-Han rat administered as cassette dose by LC-MS/MS analysis; assay type: ADME, organism-based; settings: read-out: K(p,uu,brain)
[26] = Toxicity in rhesus monkey assessed as tolerance at 100 to 800 mg/kg, po administered once daily for 7 days; assay type: organism-based, Macaca mulatta; settings: in vivo, 168 h, dose 100-800 mg/kg, time 7 day
[27] = AUC in Wistar-Han rat at 225 mg/kg, po administered once daily for 7 days; assay type: ADME, organism-based; design: time 7 day, dose 225 mg/kg, route po; settings: in vivo
[28] = Toxicity in Wistar-Han rat assessed as body weight loss at 750 mg/kg, po administered once daily for 7 days; assay type: organism-based; settings: in vivo, 168 h, time 7 day
[29] = Toxicity in Wistar-Han rat assessed as effect on mean blood pressure at 60 mg/kg, po administered as single dose and measured upto 24 hrs by telemetric analysis; assay type: organism-based; settings: in vivo
[30] = Unbound drug concentration in guinea pig plasma at 15 mg/kg, iv administered continuously for 20 mins; assay type: ADME, organism-based, Cavia porcellus; settings: in vivo
Nav1.5 = Nav1.5 (Homo sapiens, UniProt Q14524); assay: Inhibition of human Nav1.5 expressed in HEK293 cells at 30 uM by QPatch voltage clamp assay relative to control; assay type: cell-based; settings: HEK293 cells expressing human Nav1.5
[31] = Kinetic solubility of compound in FaSSIF at pH 6.5 measured after 24 hrs by UPLC/DAD analysis; assay type: physicochemical; settings: read-out: Kinetic_solubility
[32] = Toxicity in Wistar-Han rat assessed as NOAEL measured after 7 days; settings: in vivo, time 7 day
[33] = Mutagenicity in Salmonella typhimurium TA1535 at 30 to 5000 ug/plate incubated for 48 hrs in presence of Wistar-Han rat S9 fraction by Ames test; assay type: toxicity, subcellular; settings: salmonella enterica subsp. enterica serovar typhimurium, s9, 48 h
mouse BCRP = assay: Efflux ratio of apparent permeability across basolateral to apical over apical to basolateral side in MDCK-II cells transfected with mouse BCRP incubated for 3 hrs by LC-MS/MS analysis; settings: dog

With C[C@@]1(N2CCN(c3cc4cc(NC(=O)[C@H]5CC56CCOCC6)ncc4cc3Cl)CC2)COC[C@@H]1O the fraction unbound at 4 h [1] was 0.131, the Activity [2] was “Non-Toxic” and the Activity [3] was “Toxic”. The Activity [4] was “Non-Toxic”, the IC50 [5] was 0.4 nM and the Activity [6] was “Non-Toxic”. The CL [7] was 149 mL/min/kg, the CL [8] was 1435 mL/min/kg and the Activity [9] was “Non-Toxic”. The Activity [10] was “Non-Toxic”, the clearance [11] was 56 mL/min/kg and the AUC [12] was 6 µM·h. The Activity [13] was “Non-Toxic”, the efflux ratio at 3 h (rat Mdrl1 P-gp) was 2.1 and the Activity [14] was “Non-Toxic”. For the same compound, the MRT [15] was 3.6 h, the Activity [16] was “Non-Toxic” and the AUC [17] was 3 µM·h. For the same compound, the Activity [18] was “Non-Toxic”, the CL [19] was 736 mL/min/kg and the inhibition at 30 µM (hERG (KCNH2)) was 39%. For the same compound, the Activity [20] was “Non-Toxic”, the inhibition (Rattus norvegicus) was “Dose-Dependent Effect” and the Activity [21] was “Toxic”. The Activity [22] was “Non-Toxic”, the Activity [23] was “Non-Toxic” and the solubility kinetic at 24 h [24] was less than 3 µM. The Kp uu [25] was 0.3, the Activity [26] was “Non-Toxic” and the AUC at 168 h [27] was 88 µM·h. The Activity [28] was “Toxic”, the Activity [29] was “Non-Toxic” and the “Cp(f)” value [30] was 5.69 µM. It also gave an inhibition at 30 µM (Nav1.5) of 34%, a solubility kinetic at 24 h [31] of 6 µM (≈ 3.01 µg/mL) and an NOAEL at 168 h [32] of 225 mg/kg/day. For the same compound, the Activity [33] was “Non-Toxic” and the efflux ratio at 3 h (mouse BCRP) was 2.6.
